Laboratory results reported in publication PMC8399847, “Hybrid Quinolinyl Phosphonates as Heterocyclic Carboxylate Isosteres: Synthesis and Biological Evaluation against Topoisomerase 1B (TOP1B)” (Pharmaceuticals, 2021).

Columns and labels:
Assay type in all cases: cell-based
[1] = test system: A549 (human lung adenocarcinoma cells); test: CCK-8 cytotoxicity assay, A549; details: A549, 48 h, CCK-8, 50% growth inhibition, read-out: Cytotoxicity IC50 Lung A549
Experimental: (§1) The cytotoxicity of the newly synthesized quinolinylphosphonates 7 was evaluated in vitro by testing their antiproliferative activities against several human cancer cell lines: A549 (human lung adenocarcinoma cells), SKOV3 (human ovarian carcinoma), and HEK293 (human embryonic kidney). In order to analyze the selective cytotoxicity facing exclusively cancerous cell lines, cytotoxicity against non-cancerous cell lines (MRC-5, lung fibroblast cells) was also evaluated. Cell counting kit (CCK-8) assay was employed to assess growth inhibition and, cell proliferation inhibitory activities of compounds that are listed in Table 1 as IC50 values. […] According to the data presented in Table 1, in general, all these phosphorated derivatives present higher selective cytotoxicity in the A549 cell line than in the other two cell lines, SKOV3 and HEK293, although slight differences are observed compared to human ovarian carcinoma (SKOV3).
(§2) Cells were cultured according to the supplier’s instructions, A549 (ATCC® CCL-185), SKOV3 (ATCC® HTB-77), HEK293 (CLS GmbH), MRC-5 (ATCC® CCL-171™). Cells were seeded in 96-well plates at a density of 2–2.5 × 10^3 cells per well and incubated overnight in 0.1 mL of media supplied with 10% Fetal Bovine Serum (Lonza, Basel, Switzerland) in a 5% CO2 incubator at 37 °C. On day 2, drugs (concentration between 0.5–50 μM) were added and samples were incubated for 48 h. After treatment, 10 μL of cell counting kit-8 was added to each well for an additional 2 h incubation at 37 °C. The absorbance of each well was determined by an Automatic Elisa Reader System at 450 nm wavelength. CPT was purchased from Sigma-Aldrich and used as a positive control.

[2] = test system: SKOV3 (human ovarian carcinoma); test: CCK-8 cytotoxicity assay, SKOV3; details: SK-OV-3, SKOV3, 48 h, CCK-8, 50% growth inhibition, read-out: Cytotoxicity IC50 Ovarian SKOV3
Experimental: as §1, §2

[3] = CCK-8 cytotoxicity assay, MRC-5 non-cancerous cells; details: human, MRC-5 non-malignant lung fibroblast cells, MRC-5 non-malignant lung fibroblasts
Experimental: as §1, §2

CC[C@@]1(O)C(=O)OCc2c1cc1n(c2=O)Cc2cc3ccccc3nc2-1 [CPT, Camptothecin, reference compound]
IC50 [1]: 1 nM
IC50 [2]: 5.5 nM
IC50 at 48 h [3]: 0.017 nM
